Source: ChEMBL document CHEMBL1201862, “PubChem BioAssay data set” (2004)
The source made the active and inactive calls.

Assays:
[1] = Shn3 3'UTR reporter inhibitors, dose response, cell-based, Clone20 osteoblasts, firefly luciferase, cherry-picked (AID 624132); assay type: functional;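 note: firefly luciferase luminescence from reporter carrying the Shn3 3'UTR in osteoblasts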
[2] = molecular target: T1, Carboxy-terminal domain RNA polymerase II polypeptide A small phosphatase 1 (Homo sapiens, UniProt Q9GZU7); assay: inhibitors of CTDSP1, concentration-response testing, biochemical assay, absorbance-based, actives from ultra-high-throughput screening (AID 540297); assay type: functional
T1 sequence (Q9GZU7 whole entry): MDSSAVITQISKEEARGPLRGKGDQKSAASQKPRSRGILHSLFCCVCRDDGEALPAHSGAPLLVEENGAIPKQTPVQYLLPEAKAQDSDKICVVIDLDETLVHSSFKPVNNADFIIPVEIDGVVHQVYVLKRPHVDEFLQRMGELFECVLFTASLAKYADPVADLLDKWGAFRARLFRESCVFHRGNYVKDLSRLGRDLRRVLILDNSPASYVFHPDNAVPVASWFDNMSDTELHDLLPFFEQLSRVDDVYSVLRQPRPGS

[3] = inhibitors of firefly luciferase expression or activity, dose response, H4 neuroglioma cells, luminescence (AID 1990); assay type: functional, cell-based
[4] = Luminescence Cell-Based Dose Response HTS to Identify Inhibitors of 5'UTR Stem-Loop Driven Prion Protein mRNA Translation in H4 Neuroglioblastoma Cells. [Related pubchem assays: 1827 (Project Summary), 1813 (Primary HTS)]; assay type: functional
[5] = inhibitors of SNCA 5'UTR-driven reporter translation, confirmation, H4 neuroglioma cells, luminescence (AID 1988); assay type: functional, cell-based
cells = assay type: functional
Cytochrome P450 1A2 = molecular target: T2, Cytochrome P450 1A2 (Homo sapiens, UniProt P05177);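 note: PubChem cytochrome P450 panel assay, CYP1A2 panel member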
T2 sequence (P05177 whole entry): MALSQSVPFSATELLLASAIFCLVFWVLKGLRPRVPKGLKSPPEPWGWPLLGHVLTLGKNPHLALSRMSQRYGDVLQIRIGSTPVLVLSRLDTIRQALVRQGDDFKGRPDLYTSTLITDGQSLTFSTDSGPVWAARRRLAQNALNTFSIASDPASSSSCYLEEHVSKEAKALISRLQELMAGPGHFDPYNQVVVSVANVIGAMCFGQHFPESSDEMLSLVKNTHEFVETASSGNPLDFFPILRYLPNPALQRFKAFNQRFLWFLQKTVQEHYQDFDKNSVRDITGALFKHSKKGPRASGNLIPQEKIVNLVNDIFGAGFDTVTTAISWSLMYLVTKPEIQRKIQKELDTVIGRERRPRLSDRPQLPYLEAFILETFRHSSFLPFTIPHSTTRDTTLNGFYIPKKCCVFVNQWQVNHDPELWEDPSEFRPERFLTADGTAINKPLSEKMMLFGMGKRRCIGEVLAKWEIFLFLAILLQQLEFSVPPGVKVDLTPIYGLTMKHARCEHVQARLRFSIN

[6] = molecular target: T3, Polyadenylate-binding protein 1 (Homo sapiens, UniProt P11940); assay: PABP1 MLLE–PAM2 interaction inhibitors, dose response, miRNA deadenylation inhibitor project, biochemical, fluorescence polarization, Cy5-PAM2 peptide, secondary (AID 602260); assay type: functional; settings: read-out: IC50_Mean
T3 sequence (P11940 whole entry): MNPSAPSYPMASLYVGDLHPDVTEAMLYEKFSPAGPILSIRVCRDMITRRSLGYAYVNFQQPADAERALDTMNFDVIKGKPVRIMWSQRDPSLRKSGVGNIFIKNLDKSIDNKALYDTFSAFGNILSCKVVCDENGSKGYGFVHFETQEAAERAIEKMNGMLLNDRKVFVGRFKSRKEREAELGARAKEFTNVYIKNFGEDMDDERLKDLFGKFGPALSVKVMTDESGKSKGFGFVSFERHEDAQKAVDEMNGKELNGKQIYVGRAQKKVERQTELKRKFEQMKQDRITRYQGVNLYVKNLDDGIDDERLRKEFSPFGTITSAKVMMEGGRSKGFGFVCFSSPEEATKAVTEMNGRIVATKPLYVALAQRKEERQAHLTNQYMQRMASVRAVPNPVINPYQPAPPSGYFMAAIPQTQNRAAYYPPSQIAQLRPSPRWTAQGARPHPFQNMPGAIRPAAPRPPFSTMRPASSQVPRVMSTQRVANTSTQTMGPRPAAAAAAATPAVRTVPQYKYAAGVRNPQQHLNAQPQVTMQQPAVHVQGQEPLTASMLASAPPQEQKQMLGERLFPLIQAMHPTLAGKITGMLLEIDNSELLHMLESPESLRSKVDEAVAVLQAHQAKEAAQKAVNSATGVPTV

[7] = molecular target: T3, Polyadenylate-binding protein 1; assay: PABP1 MLLE–PAM2 binding inhibitor potency, dose response, biochemical, fluorescence polarization, FITC-PAM2 peptide (AID 602259); assay type: functional; settings: read-out: IC50_Mean
Cytochrome P450 2C19 = Cytochrome P450 2C19 (Homo sapiens, UniProt P33261); assay: Cytochrome panel assay with activity outcomes. Panel member name: p450-cyp2c19 Compounds with AC50 equal or less than 10 uM are considered active; assay type: functional; settings: read-out: AC50
Chain of Cytochrome P450 2C19 (P33261 whole entry): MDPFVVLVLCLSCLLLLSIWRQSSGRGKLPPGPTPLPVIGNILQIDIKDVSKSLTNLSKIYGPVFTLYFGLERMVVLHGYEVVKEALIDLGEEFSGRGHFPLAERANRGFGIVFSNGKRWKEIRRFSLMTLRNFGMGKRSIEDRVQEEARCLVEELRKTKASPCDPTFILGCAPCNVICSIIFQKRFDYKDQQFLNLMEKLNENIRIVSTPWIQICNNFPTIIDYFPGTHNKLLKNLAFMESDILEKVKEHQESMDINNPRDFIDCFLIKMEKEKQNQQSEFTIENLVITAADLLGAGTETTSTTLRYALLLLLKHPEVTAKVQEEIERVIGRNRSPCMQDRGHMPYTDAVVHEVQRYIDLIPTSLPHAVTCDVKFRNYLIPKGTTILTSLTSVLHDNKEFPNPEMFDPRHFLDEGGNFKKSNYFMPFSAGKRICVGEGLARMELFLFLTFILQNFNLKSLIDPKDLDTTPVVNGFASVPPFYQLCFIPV

Cytochrome P450 2D6 = Cytochrome P450 2D6 (Homo sapiens, UniProt P10635);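 note: CYP2D6 member of a cytochrome P450 panel assay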
Chain of Cytochrome P450 2D6 (P10635 whole entry): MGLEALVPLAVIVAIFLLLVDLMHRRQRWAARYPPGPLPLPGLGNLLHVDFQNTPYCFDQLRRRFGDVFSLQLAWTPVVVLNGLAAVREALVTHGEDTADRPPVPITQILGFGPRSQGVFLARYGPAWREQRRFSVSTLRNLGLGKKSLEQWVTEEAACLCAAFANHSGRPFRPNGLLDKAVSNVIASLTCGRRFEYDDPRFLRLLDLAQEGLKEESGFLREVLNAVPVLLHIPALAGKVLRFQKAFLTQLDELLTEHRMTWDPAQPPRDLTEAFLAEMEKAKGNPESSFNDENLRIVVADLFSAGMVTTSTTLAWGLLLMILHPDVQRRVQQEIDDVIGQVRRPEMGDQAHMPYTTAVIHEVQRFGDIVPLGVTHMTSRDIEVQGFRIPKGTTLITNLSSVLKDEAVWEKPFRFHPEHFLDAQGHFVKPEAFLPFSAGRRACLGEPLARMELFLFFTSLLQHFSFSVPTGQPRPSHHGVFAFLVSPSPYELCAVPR

[8] = test system: Streptococcus sp. 'group A'; assay: growth inhibition of control SK(-) GAS strain, dose response, counter-screen for streptokinase expression inhibitor project, luminescence, kanamycin, BacTiterGlo, confirmation (AID 1900); assay type: functional, organism-based
Streptococcus = assay: Group A Streptococcus viability loss, dose response, counter-screen for streptokinase expression inhibitor project, luminescence, BacTiterGlo (AID 1915); assay type: functional, organism-based;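 note: potency for reduction of bacterial viability or growth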

CCN(CC)C(=O)[C@H]1C[C@H](CC(=O)NC/C=C(\C)CCC=C(C)C)C(=O)N2CCc3c([nH]c4cc(CCC(=O)N(C)C)ccc34)[C@]12C
AC50 [1]: 1.37 µM (active)

O=c1c2ccccc2nc2sc(Nc3ccc(F)cc3)nn12
IC50 [2]: 8.04 µM (active)

CCOC(=O)c1cc(-c2ccccc2)nc2nc(N3CCCCC3)sc12
EC50 [3]: 14.8 µM (active) | EC50 [4]: 24.3 µM (active) | EC50 [5]: 103 µM (active)

COc1ccccc1/C=C/C=N/NC(=O)c1ccncc1
IC50 (cells): 0.44 µM (active)

O=C1c2c(O)cc(O)cc2O[C@@H](c2ccc(O)c(O)c2)[C@H]1O [(+)-EPITAXIFOLIN]
AC50 (Cytochrome P450 1A2): 15.8 µM (inconclusive)

COCCCNC(=O)c1ccc(Cn2c(=O)c3ccccc3n(Cc3ccccc3C#N)c2=O)cc1
EC50 [3]: 20.7 µM (active) | EC50 [4]: > 120 µM (not active) | EC50 [5]: > 120 µM (not active)

CC(C)(C)C1CCc2onc(C(=O)Nc3cnn(Cc4ccc(F)cc4)c3)c2C1 (stereo unspecified)
EC50 [3]: 28.2 µM (active) | EC50 [4]: 23.3 µM (active) | EC50 [5]: > 120 µM (not active)

Cc1ccc(C2=[N+]([O-])C3(CCCCC3=O)N(O)C2(C)C)cc1 (stereo unspecified)
EC50 [3]: > 120 µM (not active) | EC50 [4]: > 120 µM (not active) | EC50 [5]: 42.6 µM (active)

O=C(NCCNc1ccc([N+](=O)[O-])cc1Cl)c1ccccc1F
EC50 [3]: > 120 µM (not active) | EC50 [4]: 26.4 µM (active) | EC50 [5]: 76.3 µM (active)

CCOC(=O)c1c(NC(=O)C2(C)Cc3ccccc3C(=O)O2)sc2c1CCCC2 (stereo unspecified)
IC50 [6]: > 66 µM (inactive) | IC50 [7]: > 66 µM (inactive)

O=C(CSC1=NC2(CCCCC2)N=C1c1ccccc1)Nc1ccc2c(c1)OCCO2
IC50 [6]: > 66 µM (inactive) | IC50 [7]: > 66 µM (inactive)

Cc1onc(-c2c(F)cccc2Cl)c1C(=O)NC(=S)Nc1c(C)n(C)n(-c2ccccc2)c1=O
IC50 [6]: > 66 µM (inactive) | IC50 [7]: > 66 µM (inactive)

O=C(CCCCCNC(=O)c1ccccc1)N/N=C/c1ccco1
IC50 [2]: 29.2 µM (active)

Cc1ccc(C(=O)Nc2cccc(C(F)(F)F)c2)cc1NC(=O)c1cnnc2ccccc12
EC50 [3]: 13.2 µM (active) | EC50 [4]: 18.9 µM (active) | EC50 [5]: > 120 µM (not active)

Cc1cc(NC(=O)CSc2sc3c(O)cc(=O)[nH]c3c2C#N)ccc1Br
IC50 [2]: 3.74 µM (active)

Cc1noc(C)c1-c1cncnc1NCCN1CCOCC1
AC50 (Cytochrome P450 2C19): 0.0398 µM (inconclusive) | AC50 (Cytochrome P450 1A2): 31.6 µM (inconclusive)

CCCn1c(=O)c(C(=O)N/N=C/c2ccccc2F)c(O)c2ccccc21
IC50 (cells): 48.2 µM (active)

Cc1cc([C@](C)(N)C(=O)O)ccc1P(=O)(O)O
AC50 (Cytochrome P450 2D6): 12.6 µM (inconclusive) | AC50 (Cytochrome P450 1A2): 31.6 µM (inconclusive)

O=C1N=C(Nc2ccccn2)SC1Cc1ccc(Cl)cc1 (stereo unspecified)
EC50 [8]: 83.8 µM (active) | EC50 (Streptococcus): > 150 µM (not active) | IC50 (cells): > 25 µM (active)

CCCC(=O)Nc1cccc(-c2nc3ccccc3c(=O)o2)c1
IC50 (cells): 10.4 µM (active)

Cc1nc2ccccn2c1C(=O)C1=C(O)C(=O)N(CCN(C)C)C1c1ccco1 (stereo unspecified)
IC50 [6]: > 66 µM (inactive) | IC50 [7]: > 66 µM (inactive)
